The values below come from patent US9809574B2, “Isoindoline or isoquinoline compounds, a process for their preparation and pharmaceutical compositions containing them” (LES LABORATOIRES SERVIER, priority 2013, dated 2017).

In test [1] the target is Bcl-2 protein (histag-Bcl-2, UniProtKB P10415) (Homo sapiens (Human), UniProt P10415). Briefly: Inhibition of Bcl-2 by the fluorescence polarisation technique. Format: binding. The following applies: fluorescence polarisation test; incubation for 2 hours; read-out: IC50 (nM) Bcl-2 FP. The source says: For partial inhibitors, the percentage fluorescence polarisation inhibition for a given concentration of the test compound is indicated.
In general terms: Polarisation of emitted light reports the rotation of a fluorescent probe.

The subject of test [2] is RS4; 11 leukaemia cell line. Description: In vitro cytotoxicity, Microculture Tetrazolium Assay (MTT). Format: cell-based. The following applies: Homo sapiens, 11 cells exposed for 48 hours. As to the method: The cytotoxicity studies were carried out on the RS4; 11 leukaemia cell line and on H146 small Cell Lung Carcinoma cell line. The cells are distributed onto microplates and exposed to the test compounds for 48 hours. The cell viability is then quantified by a colorimetric assay, the Microculture Tetrazolium Assay (Cancer Res., 1987, 47, 939-942).

Counter-ions that a name gives are not always drawn. A value given as a limit tells only on which side of the number the result lay.

Sequence of Bcl-2 protein (P10415 whole entry): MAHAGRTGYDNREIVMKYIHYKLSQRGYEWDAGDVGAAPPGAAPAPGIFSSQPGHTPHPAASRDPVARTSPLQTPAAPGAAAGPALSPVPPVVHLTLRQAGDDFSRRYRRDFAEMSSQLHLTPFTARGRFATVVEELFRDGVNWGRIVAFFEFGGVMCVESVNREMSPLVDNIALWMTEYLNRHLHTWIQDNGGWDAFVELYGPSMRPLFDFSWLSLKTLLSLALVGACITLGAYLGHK

By IC50 is commonly meant the concentration at which inhibition is half-maximal. Take `C[C@@H]1Cc2ccccc2CN1C(=O)c1cc2c(cc1-c1cc(C(=O)N(C)c3ccc(O)cc3)c3n1CCCC3)CCN(C(=O)N1CCC(c3ccccc3)C1)C2` (stereo partly drawn) [Example 67, N-(4-Hydroxyphenyl)-N-methyl-3-{7-[(3R)-3-methyl-1,2,3,4-tetrahydroisoquinoline-2-carbonyl]-2-(3-phenylpyrrolidine-1-carbonyl)-1,2,3,4-tetrahydroisoquinolin-6-yl}-5,6,7,8-tetrahydroindolizine-1-carboxamide]: the IC50 was determined as 9.4 nM in test [1] and 51 nM in test [2].
`Cc1c(C(=O)N(C)c2ccc(O)cc2)cc(-c2cc3c(cc2C(=O)N2Cc4ccccc4C[C@H]2C)CN(C(=O)Oc2ccccc2)CC3)n1C` [Example 68, Phenyl 6-{4-[(4-hydroxyphenyl)(methyl)carbamoyl]-1,5-dimethyl-1H-pyrrol-2-yl}-7-[(3R)-3-methyl-1,2,3,4-tetrahydroisoquinoline-2-carbonyl]-1,2,3,4-tetrahydroisoquinoline-2-carboxylate]: the IC50 in test [1] was found to be 2.9 nM; in test [2], 1.8 nM.
Consider `CN(C(=O)c1cc(-c2cc3c(cc2C(=O)N2Cc4ccccc4C[C@H]2CN2CCOCC2)CN(C(=O)Oc2ccccc2)CC3)n2c1CCCC2)c1ccc(O)cc1` [Example 69, Phenyl 6-{1-[(4-hydroxyphenyl)(methyl)carbamoyl]-5,6,7,8-tetrahydroindolizin-3-yl}-7-[(3S)-3-(morpholin-4-ylmethyl)-1,2,3,4-tetrahydroisoquinoline-2-carbonyl]-1,2,3,4-tetrahydroisoquinoline-2-carboxylate hydrochloride], for which the IC50 came out at 3.1 nM in test [1] and 3.46 nM in test [2].
Consider `CN(C(=O)c1cc(-c2cc3c(cc2C(=O)N2Cc4ccccc4C[C@H]2CN2CCOCC2)CN(C(=O)Cc2ccccc2)CC3)n2c1CCCC2)c1ccc(O)cc1` [Example 70, N-(4-Hydroxyphenyl)-N-methyl-3-{7-[(3S)-3-(morpholin-4-ylmethyl)-1,2,3,4-tetrahydroisoquinoline-2-carbonyl]-2-(2-phenylacetyl)-1,2,3,4-tetrahydroisoquinolin-6-yl}-5,6,7,8-tetrahydroindolizine-1-carboxamide], for which the results for the concentration for half-maximal inhibition (IC50) in test [1] and in test [2] were 5.1 nM and 9.8 nM, respectively.
Consider `C[C@@H]1Cc2ccccc2CN1C(=O)c1cc2c(cc1-c1cc(C(=O)N(C)c3ccc(O)cc3)c3n1CCCC3)CCN(C(=O)Nc1ccccc1)C2` [Example 71, 6-{1-[(4-Hydroxyphenyl)(methyl)carbamoyl]-5,6,7,8-tetrahydroindolizin-3-yl}-7-[(3R)-3-methyl-1,2,3,4-tetrahydroisoquinoline-2-carbonyl]-N-phenyl-1,2,3,4-tetrahydroisoquinoline-2-carboxamide], for which the values for the IC50 in test [1] and in test [2] were 3.7 nM and 9.9 nM, respectively.
For `C[C@@H]1Cc2ccccc2CN1C(=O)c1cc2c(cc1-c1cc(C(=O)N(C)c3ccc(O)cc3)c3n1CCCC3)CN(CCc1ccccc1)C2` [Example 72, N-(4-Hydroxyphenyl)-N-methyl-3-{6-[(3R)-3-methyl-1,2,3,4-tetrahydroisoquinoline-2-carbonyl]-2-(2-phenylethyl)-2,3-dihydro-1H-isoindol-5-yl}-5,6,7,8-tetrahydroindolizine-1-carboxamide], the figures for the IC50 in test [1] and in test [2] were 21 nM and 229 nM, respectively.
As for `C[C@@H]1Cc2ccccc2CN1C(=O)c1cc2c(cc1-c1cc(C(=O)N(C)c3ccc(O)cc3)c3n1CCCC3)CCN(C(=O)NCc1ccccc1)C2` [Example 73, N-Benzyl-6-{1-[(4-hydroxyphenyl)(methyl)carbamoyl]-5,6,7,8-tetrahydroindolizin-3-yl}-7-[(3R)-3-methyl-1,2,3,4-tetrahydroisoquinoline-2-carbonyl]-1,2,3,4-tetrahydroisoquinoline-2-carboxamide], the concentration for half-maximal inhibition (IC50) in test [1] came to 4.3 nM; in test [2] it was 36 nM.
Consider `C[C@@H]1Cc2ccccc2CN1C(=O)c1cc2c(cc1-c1cc(C(=O)N(C)c3ccc(O)cc3)c3n1CCCC3)CCN(C(=O)N(C)c1ccccc1)C2` [Example 74, 6-{1-[(4-Hydroxyphenyl)(methyl)carbamoyl]-5,6,7,8-tetrahydroindolizin-3-yl}-N-methyl-7-[(3R)-3-methyl-1,2,3,4-tetrahydroisoquinoline-2-carbonyl]-N-phenyl-1,2,3,4-tetrahydroisoquinoline-2-carboxamide], for which the IC50 in test [1] was 6.1 nM; in test [2] it was 94 nM.
On to `Cc1c(C(=O)N(C)c2ccc(O)cc2)cc(-c2cc3c(cc2C(=O)N2Cc4ccccc4C[C@H]2C)CN(C(=O)Cc2ccccc2)CC3)n1C` [Example 75, N-(4-Hydroxyphenyl)-N,1,2-trimethyl-5-{7-[(3R)-3-methyl-1,2,3,4-tetrahydroisoquinoline-2-carbonyl]-2-(2-phenylacetyl)-1,2,3,4-tetrahydroisoquinolin-6-yl}-1H-pyrrole-3-carboxamide], for which the IC50 in test [1] was 4 nM; in test [2], 6.2 nM.
On to `C[C@@H]1Cc2ccccc2CN1C(=O)c1cc2c(cc1-c1cc(C(=O)N(C)c3ccc(O)cc3)c3n1CCCC3)CN(C(=O)NC(C)(C)C)C2` [Example 76, N-tert-Butyl-5-{1-[(4-hydroxyphenyl)(methyl)carbamoyl]-5,6,7,8-tetrahydroindolizin-3-yl}-6-[(3R)-3-methyl-1,2,3,4-tetrahydroisoquinoline-2-carbonyl]-2,3-dihydro-1H-isoindole-2-carboxamide], for which the IC50 is 24 nM in test [1] and over 150 nM in test [2].
With `CN(C(=O)c1cc(-c2cc3c(cc2C(=O)N2Cc4ccccc4C[C@H]2CN2CCOCC2)CN(C(=O)Nc2ccccc2)CC3)n2c1CCCC2)c1ccc(O)cc1` [Example 77, 6-{1-[(4-Hydroxyphenyl)(methyl)carbamoyl]-5,6,7,8-tetrahydroindolizin-3-yl}-7-[(3S)-3-(morpholin-4-ylmethyl)-1,2,3,4-tetrahydroisoquinoline-2-carbonyl]-N-phenyl-1,2,3,4-tetrahydroisoquinoline-2-carboxamide], the IC50 was 4 nM in test [1] and 84 nM in test [2].
For `CN(C(=O)c1cc(-c2cc3c(cc2C(=O)N2Cc4ccccc4C[C@H]2CN2CCOCC2)CN(C(=O)NCc2ccccc2)CC3)n2c1CCCC2)c1ccc(O)cc1` [Example 78, N-Benzyl-6-{1-[(4-hydroxyphenyl)(methyl)carbamoyl]-5,6,7,8-tetrahydroindolizin-3-yl}-7-[(3S)-3-(morpholin-4-ylmethyl)-1,2,3,4-tetrahydroisoquinoline-2-carbonyl]-1,2,3,4-tetrahydroisoquinoline-2-carboxamide] the same measures were 4.4 nM and 142 nM.
Regarding `CNC(=O)N1CCc2cc(-c3cc(C(=O)N(C)c4ccc(O)cc4)c4n3CCCC4)c(C(=O)N3Cc4ccccc4C[C@H]3C)cc2C1` [Example 79, 6-{1-[(4-Hydroxyphenyl)(methyl)carbamoyl]-5,6,7,8-tetrahydroindolizin-3-yl}-N-methyl-7-[(3R)-3-methyl-1,2,3,4-tetrahydroisoquinoline-2-carbonyl]-1,2,3,4-tetrahydroisoquinoline-2-carboxamide], the IC50 in test [1] was 5.6 nM; in test [2], over 150 nM.
Consider `Cc1c(C(=O)N(C)c2ccc(O)cc2)cc(-c2cc3c(cc2C(=O)N2Cc4ccccc4C[C@H]2C)CN(C(=O)Cc2ccccc2)C3)n1C` [Example 80, N-(4-Hydroxyphenyl)-N,1,2-trimethyl-5-{6-[(3R)-3-methyl-1,2,3,4-tetrahydroisoquinoline-2-carbonyl]-2-(2-phenylacetyl)-2,3-dihydro-1H-isoindol-5-yl}-1H-pyrrole-3-carboxamide], for which the IC50 in test [1] turned out to be 5.5 nM; in test [2], 71 nM.
For the molecule `C[C@@H]1Cc2ccccc2CN1C(=O)c1cc2c(cc1-c1cc(C(=O)N(C)c3ccc(O)cc3)c3n1CCCC3)CN(C(=O)N(C)C(C)(C)C)C2` [Example 81, N-tert-Butyl-5-{1-[(4-hydroxyphenyl)(methyl)carbamoyl]-5,6,7,8-tetrahydroindolizin-3-yl}-N-methyl-6-[(3R)-3-methyl-1,2,3,4-tetrahydroisoquinoline-2-carbonyl]-2,3-dihydro-1H-isoindole-2-carboxamide], the results for the IC50 in test [1] and in test [2] were 21 nM and over 150 nM, respectively.
For `C[C@@H]1Cc2ccccc2CN1C(=O)c1cc2c(cc1-c1cc(C(=O)N(C)c3ccc(O)cc3)c3n1CCCC3)CN(C(=O)N(C)c1ccccc1)C2` [Example 82, 5-{1-[(4-Hydroxyphenyl)(methyl)carbamoyl]-5,6,7,8-tetrahydroindolizin-3-yl}-N-methyl-6-[(3R)-3-methyl-1,2,3,4-tetrahydroisoquinoline-2-carbonyl]-N-phenyl-2,3-dihydro-1H-isoindole-2-carboxamide] the same measures were 17 nM and over 150 nM.
Regarding `C[C@@H]1Cc2ccccc2CN1C(=O)c1cc2c(cc1-c1cc(C(=O)N(C)c3ccc(O)cc3)c3n1CCCC3)CN(C(=O)N1CC(c3ccccc3)C1)C2` [Example 83, N-(4-Hydroxyphenyl)-N-methyl-3-{6-[(3R)-3-methyl-1,2,3,4-tetrahydroisoquinoline-2-carbonyl]-2-(3-phenylazetidine-1-carbonyl)-2,3-dihydro-1H-isoindol-5-yl}-5,6,7,8-tetrahydroindolizine-1-carboxamide], the IC50 came out at 15 nM in test [1] and 122 nM in test [2].
For `C[C@@H]1Cc2ccccc2CN1C(=O)c1cc2c(cc1-c1cc(C(=O)N(C)c3ccc(O)cc3)c3n1CCCC3)CCN(C(=O)N1CC(c3ccccc3)C1)C2` [Example 84, N-(4-Hydroxyphenyl)-N-methyl-3-{7-[(3R)-3-methyl-1,2,3,4-tetrahydroisoquinoline-2-carbonyl]-2-(3-phenylazetidine-1-carbonyl)-1,2,3,4-tetrahydroisoquinolin-6-yl}-5,6,7,8-tetrahydroindolizine-1-carboxamide] the same measures were 4.9 nM and 33 nM.
